Values of other authors in patent US6365601B1, “Process for extraction of piperine from piper species” (Council of Scientific and Industrial Research, priority 1999, dated 2002).

Details: Reen and Rashmet, J. Ethnopharmacol., 1997

In the case of `O=C(/C=C/C=C/c1ccc2c(c1)OCO2)N1CCCCC1` [Piperine], the “chemoprotective effect against procarcinogens” value is listed as “potent chemoprotective effect”.
